Values belong to the compound of their own block, whether it stands above or below them. Where a SMILES comes first, the peptide text is derived from it. [ ]: non-standard residue; d: D form. The star is where a group is joined. PhAc = O=C(Cc1ccccc1)*
Experiments:
[1] = molecular target: T1, isopenicillin N synthetase (cyclase) (Hapsidospora chrysogena, UniProt P05189); test: Cyclization of peptide substrates by A. chrysogenum cyclase, penicillin formed measured by bioassay; format: biochemical, Acremonium chrysogenum
T1 construct: The mycelium was disrupted by sonification for 2 minutes; endogenous in cells
T1 sequence (P05189 1-338): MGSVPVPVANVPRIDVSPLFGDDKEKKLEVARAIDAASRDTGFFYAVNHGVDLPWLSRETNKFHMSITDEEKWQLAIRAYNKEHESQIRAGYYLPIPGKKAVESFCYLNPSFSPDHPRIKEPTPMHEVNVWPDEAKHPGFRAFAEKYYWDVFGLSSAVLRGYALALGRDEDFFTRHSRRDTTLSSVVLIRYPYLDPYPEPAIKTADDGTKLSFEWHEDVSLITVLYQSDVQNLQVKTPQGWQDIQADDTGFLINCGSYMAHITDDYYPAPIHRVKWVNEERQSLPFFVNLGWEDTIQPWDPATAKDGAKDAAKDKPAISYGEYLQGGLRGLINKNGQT
Experimental: Example 2 was repeated but using isopenicillin N synthetase extracted from a high producing strain of Acremonium chrysogenum (A. chrysogenum C-10 available from A. L. Demain).
Cells containing high isopenicillin N synthetase activity were obtained in a two stage process as described in J. Antibiot. 144:869-876. A. chrysogenum cultures were developed in seed medium for 4 days and these used to innoculate 60ml of chemically defined cephalosporin production medium, (CP medium). Cell free extracts were obtained as described by Ramos et al in Antimicrob. Agents Chemother. 27(3):380-387. Mycelium of A. chrysogenum was collected at 64 hours of cultivation in CP medium and resuspended in 30mM Tris-HCl buffer pH 8.0 containing 0.1mM dithiothreitol (DTT). The mycelium was disrupted by sonification for 2 minutes. The extract was centrifuged at 100,000 x g for 1 hour at 4°C in a Beckman L8-70 ultracentrifuge and the resulting crude extract was stored at -20 C. Isopenicillin N synthetase was purified as previously described in Antimicrob. Agents Chemother. 27(3):380-387.
Bioassay of the isopenicillin N and benzylpenicillin formed by the A. chrysogenum cyclase was performed in a similar way to the method described in Example 3 for assaying the penicillins produced by the cyclase extracted from P. chrysogenum.
Example 4 was repeated but using POCV as substrate in place of PCV. POCV was prepared as described in Example 5. The cyclase was extracted from A. chrysogenum AS-C-80 and incubated in the reaction mixture described in Example 5, with the exception that the pH of the Tris buffer was 7.8.

[2] = molecular target: T2, isopenicillin N synthetase (cyclase) (Streptomyces clavuligerus, UniProt P10621); test: Cyclization of peptide substrates by S. clavuligerus cyclase, penicillin formed measured by bioassay against M. luteus; format: biochemical; details: for kinetics of cyclization with the cyclase (Fig 1): formation of penicillin G from PCV, synthesis of isopenicillin N from ACV
T2 construct: The broken cell suspension was ultra-centrifuged at 100,000 x g; endogenous in cells; host or cells: Streptomyces clavuligerus ATCC 27064
T2 sequence (P10621 1-329): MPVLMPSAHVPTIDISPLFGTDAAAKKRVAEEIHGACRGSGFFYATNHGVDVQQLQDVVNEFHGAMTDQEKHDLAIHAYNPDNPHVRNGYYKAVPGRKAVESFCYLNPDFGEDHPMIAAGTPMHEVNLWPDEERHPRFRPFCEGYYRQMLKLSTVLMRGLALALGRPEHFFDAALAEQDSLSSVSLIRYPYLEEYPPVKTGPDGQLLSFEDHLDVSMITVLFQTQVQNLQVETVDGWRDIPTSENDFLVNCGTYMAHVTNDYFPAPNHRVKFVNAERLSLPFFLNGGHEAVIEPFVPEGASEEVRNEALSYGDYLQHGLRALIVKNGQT
Experimental: S. clavuligerus ATTC 27064 was maintained and grown as described by O'Sullivan et al. in Biochem. J. 179:47-52, 1979. 250 ml of culture were harvested by centrifugation at 10,000 x g for 5 minutes, washed four times by resuspension in sterile saline solution and centrifuged as before. The precipitated cells, resuspended in 25 ml of […] Tris-HCl buffer pH 7.5 containing 0.1mM DTT (TD buffer), were sonicated as described in J. Antibiot. 35:483-490, 1982, using a Branson Sonifier Cell Disruptor (B-12). The broken cell suspension was ultra-centrifuged at 100,000 x g (Beckman L5-65B) for 90 minutes, treated with 0.2 (w/v) protamine sulphate and the clear extract precipitated with ammonium sulphate (30-80% saturation, for example 50-80% saturation). The resulting precipitate was resuspended in 3 ml of TD buffer and applied to a Sephadex (Trade Mark) G-25, PD-10 column (Pharmacia). Aliquots of 1 ml were collected and assayed for isopenicillin N synthetase (cyclase) activity. Fractions 4 and 5, containing maximal activity, were mixed and employed for the reaction. The cyclase extracts were stored frozen at -20 C. Protein was measured by the method of Lowry et al described in J. Biol. Chem. 193:265-273, 1951.
Cyclization activity of the cyclase on ACV or PCV was assayed by a slightly modified version of the method described by Jensen et al. in J.Antibiot, 35:483-490, 1982 and in Antibiotics and Other Secondary Metabolites pages 141-164, Academic Press. The reaction mixture contained 30mM Tris-HCl buffer pH 7.5; 0.5 mM FeSO₄; 1mM bis-ACV or 3mM bis-PCV; 4mM DTT; 3 mM Na ascorbate and enzyme (10mg of protein) in a final reaction volume of 0.5 ml. The reaction mixture was incubated at 25°C for 90 min and stopped by adding 0.5ml of methanol.
The formation of isopenicillin N and benzylpenicillin was measured by bioassay against M. luteus ATCC 9341 following the hole plate method described in Biochem. J. 103:877-890, 1967. Penicillin N and benzylpenicillin were used as standards. One unit of antibiotic (penicillin N or benzylpenicillin) gave a zone of inhibition equivalent to 1µg or 1.58 µg of penicillin N or benzylpenicillin respectively with M. luteus luteus ATCC 9341 as test organism.

[3] = molecular target: T3, isopenicillin N synthetase (cyclase) (Penicillium chrysogenum, UniProt P08703); test: Cyclization of peptide substrates by P. chrysogenum cyclase, penicillin formed measured by bioassay; format: biochemical
T3 construct: The mycelium was disrupted by sonification for 5 minutes; endogenous in cells
T3 sequence (P08703 1-331): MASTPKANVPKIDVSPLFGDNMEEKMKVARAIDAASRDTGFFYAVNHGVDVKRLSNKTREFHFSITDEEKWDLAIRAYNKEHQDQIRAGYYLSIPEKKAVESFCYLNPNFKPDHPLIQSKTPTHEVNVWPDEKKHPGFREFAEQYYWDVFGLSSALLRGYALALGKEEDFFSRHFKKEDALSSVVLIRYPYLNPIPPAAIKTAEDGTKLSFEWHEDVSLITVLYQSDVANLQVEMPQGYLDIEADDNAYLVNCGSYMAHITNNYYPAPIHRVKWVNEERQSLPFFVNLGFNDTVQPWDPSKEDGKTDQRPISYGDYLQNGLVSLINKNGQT
Experimental: Example 2 was repeated but using isopenicillin N synthetase extracted from a high producing strain of Penicillium chrysogenum (Penicillium chrysogenum AS-P-78, Luengo et al J. Antibiot. 144:869-876). Cells containing high isopenicillin N synthetase activity were obtained in a two stage process as described in J. Antibiot. 144:869-876. Cell free extracts were obtained as described by Ramos et al in Antimicrob. Agents Chemother. 27(3):380-387. Mycelium of P. chrysogenum was collected at 24 hours of cultivation in cephalosporin production medium (CP medium) and resuspended in 30mM Tris-HCl buffer pH 8.0 containing 0.1mM dithiothreitol (DTT). The mycelium was disrupted by sonification for 5 minutes. The extract was centrifuged at 100,000 x g for 1 hour at 4°C in a Beckman L8-70 ultracentrifuge and the resulting crude extract was stored at -20°C. Isopenicillin N synthetase were purified as previously described in Antimicrob. Agents Chemother. 27(3):380-387. The isopenicillin N and benzylpenicillin formed by cyclization of 0.2mM ACV or 2mM PCV using […] was assayed by the following bioassay. After the reactions were stopped with methanol, triplicate 50 µl samples were applied to wells 7mm in diameter in plates containing 15ml of Tryptic Soy Agar (TSA) medium (Difco) innoculated with Micrococcus luteus (0.5 ml of a culture having an O.D. of 1.0 at 600nm). Control samples of pure isopenicillin N or benzylpenicillin were treated with methanol in a similar way to the reaction samples. The samples in the assay plates were kept at 4°C for 3 hours to allow diffusion and then incubated at 30°C for 12 hours. The cell free extracts of P. chrysogenum AS-P-78 (5-20 mg of protein/ml) were incubated at 25°C for 30 minutes in a reaction mixture containing 30mM Tris-HCl buffer pH 8.1, 0.1mM FeSO₄, 6mM DTT, 3mM Na ascorbate and 3mM POCV. The pH was adjusted to 2.0.

[4] = test system: isopenicillin N synthetase, also called cyclase; details: added to the reaction mixture; cited from earlier work

inactivation of the reaction product by penicillinase [1]: completely inactivated | kinetics of cyclization with the cyclase (Fig 1) [2]: much faster | sensitivity of the cyclization product to penicillin acylase ([2]; isopenicillin N obtained from the cyclization of ACV): not sensitive to penicillin acylase | Isopenicillin N¹ or Benzylpenicillin² (U/ml) ([2]; substrate ACV (1mM bis-ACV), control reaction mixture, 25°C, 90 min, isopenicillin N measured using penicillin N as standard): 40 U/ml | Isopenicillin N¹ or Benzylpenicillin² (U/ml) ([2]; substrate ACV, + Penicillin acylase (2 I.U, 10 min.), isopenicillin N measured using penicillin N as standard): 38 U/ml | Isopenicillin N¹ or Benzylpenicillin² (U/ml) ([2]; substrate ACV, + β-lactamase, isopenicillin N measured using penicillin N as standard): 0 U/ml | inactivation of the reaction product by penicillin acylase [3]: did not occur | inactivation of the reaction product by penicillinase [3]: completely inactivated
Compound: CC(C)[C@@H](NC(=O)[C@H](CS)NC(=O)CCC[C@H](N)C(=O)O)C(=O)O [ACV, δ-(L-α-aminoadipyl)-L-cysteinyl-D-valine, reference compound]

Penicillin V (U/ml) ([1]; complete reaction mixture, 3mM POCV, Tris buffer pH 7.8, cyclase from A. chrysogenum AS-C-80): 0.25 U/ml | Penicillin V (U/ml) ([3]; complete reaction mixture, 3mM POCV, Tris-HCl buffer pH 8.1, 25°C, 30 minutes, P. chrysogenum AS-P-78 cell free extract): 0.18 U/ml
Compound: CC(C)[C@@H](NC(=O)[C@H](CS)NC(=O)COc1ccccc1)C(=O)O [POCV, phenoxyacetyl-L-cysteinyl-D-valine]

inactivation of the reaction product by penicillin acylase [1]: inactivated by penicillin acylase | inactivation of the reaction product by penicillinase [1]: completely inactivated | sensitivity of the cyclization product to β-lactamase I from Bacillus careus [2]: sensitive to β-lactamase I | Benzylpenicillin (U/ml) ([2]; complete reaction mixture with PCV as substrate): 0.15 U/ml | kinetics of cyclization with the cyclase (Fig 1) [2]: slow time dependent course | activity of the cyclization product against M. luteus ATTC 9341 ([2]; hole plate bioassay): active against M. luteus ATTC 9341 | loss of antibacterial activity of the cyclization product ([2]; incubated with 2 I.U. of penicillin acylase at 30°C for 10 minutes): over 90 per cent | Isopenicillin N¹ or Benzylpenicillin² (U/ml) ([2]; substrate PCV (3mM bis-PCV), control reaction mixture, 25°C, 90 min, benzylpenicillin as standard): 0.15 U/ml | Isopenicillin N¹ or Benzylpenicillin² (U/ml) ([2]; substrate PCV, + Penicillin acylase (2 I.U, 10 min.), benzylpenicillin as standard): 0.01 U/ml | Isopenicillin N¹ or Benzylpenicillin² (U/ml) ([2]; substrate PCV, + β-lactamase, benzylpenicillin as standard): 0.00 U/ml | inactivation of the reaction product by penicillin acylase [3]: inactivated by penicillin acylase | inactivation of the reaction product by penicillinase [3]: completely inactivated
Compound: CC(C)[C@@H](NC(=O)[C@H](CS)NC(=O)Cc1ccccc1)C(=O)O [PCV, phenylacetyl-L-cysteinyl-D-valine] (PhAc-Cys-[dV]-OH)

Compound: N[C@@H](CCC(=O)N[C@@H](CS)C(=O)NCC(=O)O)C(=O)O [glutathione, γ-glutamyl-cysteinyl-glycine]
effect on ACV cyclization [4]: inhibited

Source: patent EP0209363B1, “Heteropeptides, intermediates in the biosynthesis of penicillins” (Antibioticos, S.A., priority 1985, dated 1987)
